According to PMC11267547, “Advancing drug discovery through assay development: a survey of tool compounds within the human solute carrier superfamily” (Frontiers in Pharmacology, 2024):

The compounds below were run against T1, NHE1 (SLC9A1) (Homo sapiens, UniProt P19634) (assay: BCECF-AM pH recovery assay, MDA-MB-468 breast cancer cells). Conditions: not given.
T1 construct: endogenous in cells; host or cells: MDA-MB-468
Type: cell-based
Protocol: The cells were seeded (6.000 cells/well) in poly-d-lysine-coated 384-well plates (black, transparent bottom) and grown for 24 h at 37°C and 5% CO2. The media was removed, and the cells were washed once in sodium-free loading buffer (115 mM choline chloride, 20 mM NH4Cl, 5 mM KCl, 1 mM CaCl2, 1 mM MgCl2, 20 mM HEPES pH 7.4, and 5 mM glucose) and subsequently incubated for 30–45 min at 37°C in a loading buffer containing 10 µM 2′,7′-Bis(2-carboxyethyl)-5(6)-carboxyfluorescein tetrakis (acetoxymethyl) ester (BCECF-AM). The loading buffer was removed, and the cells were washed twice with NH4Cl-free acidification buffer (133.8 mM choline chloride, 4.7 mM KCl, 1.25 mM CaCl2, 1.25 mM MgCl2, 0.97 mM K2HPO4, 0.23 mM KH2PO4, 5 mM HEPES pH 7.4, and 5 mM glucose) using a plate dispenser (Multidrop Combi+, Thermo Fisher Scientific, US). The cells were incubated 5 min with 15 µL compounds at 2× concentration in acidification buffer. The assay readout was acquired using a plate reader (POLARstar Omega, BMG LABTECH, Germany) set to measure Ex./Em. at 440 nm/520 nm and 485 nm/520 nm over a period of 15 min. A baseline read was recorded before the plate readers automated dispensing of 15 µL recovery buffer (133.8 mM NaCl, 4.7 mM KCl, 1.25 mM CaCl2, 1.25 mM MgCl2, 0.97 mM Na2HPO4, 0.23 mM NaH2PO4, 5 mM HEPES pH 7.4, and 5 mM glucose), which initializes cellular pH recovery. The mean baseline measurement was subtracted from the intensities of each well, and a fluorescence intensity ratio for excitations at 485 nm and 440 nm was calculated. The data were normalized to DMSO (maximum) and no recovery controls (minimum). The data were analyzed using R, and the dr4pl package was used to fit dose–response data to the four-parameter logistic model.

T1 sequence (P19634 whole entry): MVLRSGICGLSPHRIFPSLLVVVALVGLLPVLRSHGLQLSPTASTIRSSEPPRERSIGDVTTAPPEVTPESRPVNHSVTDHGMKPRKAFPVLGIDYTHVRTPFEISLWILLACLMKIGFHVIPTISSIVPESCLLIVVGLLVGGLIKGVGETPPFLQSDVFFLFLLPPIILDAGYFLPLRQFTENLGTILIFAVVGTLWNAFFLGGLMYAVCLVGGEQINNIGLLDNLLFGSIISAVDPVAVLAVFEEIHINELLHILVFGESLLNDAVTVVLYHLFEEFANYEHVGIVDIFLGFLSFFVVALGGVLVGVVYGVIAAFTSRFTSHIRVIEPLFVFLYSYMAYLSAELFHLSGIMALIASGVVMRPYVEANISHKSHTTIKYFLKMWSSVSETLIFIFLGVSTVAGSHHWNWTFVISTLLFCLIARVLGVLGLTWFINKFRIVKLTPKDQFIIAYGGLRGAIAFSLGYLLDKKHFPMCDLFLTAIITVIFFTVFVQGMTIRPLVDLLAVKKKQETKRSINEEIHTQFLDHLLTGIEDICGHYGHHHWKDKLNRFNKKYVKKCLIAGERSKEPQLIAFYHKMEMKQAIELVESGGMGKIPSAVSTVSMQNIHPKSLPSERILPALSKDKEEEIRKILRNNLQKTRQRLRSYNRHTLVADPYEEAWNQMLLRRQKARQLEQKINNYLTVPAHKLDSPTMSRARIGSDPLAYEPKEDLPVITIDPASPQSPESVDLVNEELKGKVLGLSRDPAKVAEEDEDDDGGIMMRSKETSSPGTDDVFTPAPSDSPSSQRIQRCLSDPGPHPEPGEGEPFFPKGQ

Compound	IC50 [µM]
C=C(C)[C@H]1CN[C@H](C(=O)O)[C@H]1CC(=O)O [Kainic acid]	> 10

Same assay, conditions: BCECF; read-out: pIC50 (act), SLC9A1 (converted)

Compound	IC50 [µM]
Cc1c(NC(=O)c2cc(C(N)=O)nc3cc(F)ccc23)c(C(F)(F)F)nn1Cc1ccc(C#N)cc1 [BAY-876]	> 10
CN1C2CCC1CC(OC(c1ccccc1)c1ccccc1)C2 (stereo not shown) [Benzotropine]	> 10
CCNC(=O)/C=C/c1cccc(Br)c1 [Cinromide]	> 10
O=S(=O)(O)c1cc(N=C=S)ccc1/C=C/c1ccc(N=C=S)cc1S(=O)(=O)O [DIDS]	> 10
COCCOc1cc(CC2CCN(CCc3ccc4c(c3)C(=O)CCO4)CC2)ccc1Br [DSP-1053]	> 10
CNCCCN1c2ccccc2CCc2ccccc21 [Desipramine]	> 10
CC(C)[C@H]1CN[C@H](C(=O)O)[C@H]1CC(=O)O [Dihydrokainate]	> 10
N#Cc1ccc(Nc2cnccc2SCc2ccccc2C(=O)O)c2ccccc12 [KPH2f]	> 10

The compounds below were run against T2, SLC6A12 (Homo sapiens, UniProt P48065) (assay: Membrane potential dye-based assay, HEK293–JumpIn–SLC6A12 cells). Conditions: not given.
T2 construct: expressed in transfected cells; host or cells: Jump In T-REx HEK293
T2 sequence (P48065 1-614): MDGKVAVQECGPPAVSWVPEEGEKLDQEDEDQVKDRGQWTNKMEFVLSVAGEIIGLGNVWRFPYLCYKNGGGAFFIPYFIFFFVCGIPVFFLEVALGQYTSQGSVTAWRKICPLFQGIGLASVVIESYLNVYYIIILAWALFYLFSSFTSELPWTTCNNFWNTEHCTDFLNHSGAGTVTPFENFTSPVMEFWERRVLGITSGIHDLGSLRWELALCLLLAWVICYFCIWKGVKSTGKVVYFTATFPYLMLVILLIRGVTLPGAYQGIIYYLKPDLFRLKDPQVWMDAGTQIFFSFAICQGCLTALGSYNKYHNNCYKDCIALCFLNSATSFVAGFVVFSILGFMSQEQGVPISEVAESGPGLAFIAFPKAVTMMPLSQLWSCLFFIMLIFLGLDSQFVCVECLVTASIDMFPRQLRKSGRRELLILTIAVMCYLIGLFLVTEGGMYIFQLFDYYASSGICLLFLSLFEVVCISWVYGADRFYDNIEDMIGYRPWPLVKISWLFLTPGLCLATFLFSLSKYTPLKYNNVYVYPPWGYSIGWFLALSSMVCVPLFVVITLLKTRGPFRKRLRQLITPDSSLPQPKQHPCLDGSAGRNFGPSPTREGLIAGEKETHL
Type: cell-based
Protocol: (§1) FLIPR Membrane Potential Blue Dye was used to detect the compound activities for those membrane transporters that are electrogenic or whose activity is associated with changes in membrane potential, as previously described ([Jensen and BräunerOsborne, 2004]). In brief, cells are seeded at cell line-specific density in black clear-bottom poly-D-Lysine-coated 384-well plates (Greiner Bio-One) in DMEM high-glucose medium with 10% FBS, 1% P/S, and 2 mM UltraGlutamine I (25 µL/well). Furthermore, 24 h after seeding, the culture medium is removed, and the cells are loaded with 20 µL/well of 0.5 X FMP Blue Dye in assay buffer (modified Tyrode’s buffer, 130 mM NaCl, 5 mM KCl, 1 mM MgCl2, 2 mM CaCl2, 5 mM NaHCO3, and 20 mM HEPES pH 7.4). The plates are subsequently incubated for at least 30 min at room temperature in the dark. Then, 10 µL/well of test compounds and controls is added at defined concentrations (0.5% DMSO final conc.) in the FLIPR TETRA instrument (Molecular Devices), and emitted fluorescence is recorded using a λexc 510–545-nm/λem 565–625-nm filter. The dose–response curves for the 19 compounds were prepared starting from 3 µM (final top concentration), the half-log serial dilution factor. For data analysis, Genedata Screener 19.0 software was used.
(§2) The robust Z prime factor (RZ’ factor) was calculated with the following formula: RZ^′=1−3∗RSDMAX+RSDMIN/AbsMAX − MIN, where the RZ’ factor is based on the same formula as the Z′ factor ([Zhang et al., 1999]) but standard deviations and means are replaced by the robust standard deviations and medians, respectively. Curve fitting profiles were performed on each dose–response curve with the analyzer module of Genedata Screener 19.0 on % activity.

Compound	IC50 [µM]
C=C(C)[C@H]1CN[C@H](C(=O)O)[C@H]1CC(=O)O [Kainic acid]	> 3.16

Same assay, conditions: read-out: Inhibition (3 µM) [%], SLC6A12, MP dye

Compound	inhibition at 3 µM [%]
COCCOc1cc(CC2CCN(CCc3ccc4c(c3)C(=O)CCO4)CC2)ccc1Br [DSP-1053]	36

Same assay, conditions: target SLC6A12, Flipr Membrane Potential-Blue-Dye; read-out: pIC50 (act) (converted)

Compound	IC50 [µM]
Cc1c(NC(=O)c2cc(C(N)=O)nc3cc(F)ccc23)c(C(F)(F)F)nn1Cc1ccc(C#N)cc1 [BAY-876]	> 3.16
CN1C2CCC1CC(OC(c1ccccc1)c1ccccc1)C2 (stereo not shown) [Benzotropine]	> 3.16
CCNC(=O)/C=C/c1cccc(Br)c1 [Cinromide]	> 3.16
O=S(=O)(O)c1cc(N=C=S)ccc1/C=C/c1ccc(N=C=S)cc1S(=O)(=O)O [DIDS]	> 3.16
COCCOc1cc(CC2CCN(CCc3ccc4c(c3)C(=O)CCO4)CC2)ccc1Br [DSP-1053]	> 3.16
CNCCCN1c2ccccc2CCc2ccccc21 [Desipramine]	> 3.16
CC(C)[C@H]1CN[C@H](C(=O)O)[C@H]1CC(=O)O [Dihydrokainate]	> 3.16
N#Cc1ccc(Nc2cnccc2SCc2ccccc2C(=O)O)c2ccccc12 [KPH2f]	> 3.16

What follows are compounds tested against T3, SLC23A1 (Homo sapiens, UniProt Q9UHI7) (assay: RESOLUTE assay on SLC23A1). Conditions: not given.
T3 construct: expressed in transfected cells; host or cells: Jump In T-REx HEK293 (general cell-line paragraph)
T3 sequence (Q9UHI7 whole entry): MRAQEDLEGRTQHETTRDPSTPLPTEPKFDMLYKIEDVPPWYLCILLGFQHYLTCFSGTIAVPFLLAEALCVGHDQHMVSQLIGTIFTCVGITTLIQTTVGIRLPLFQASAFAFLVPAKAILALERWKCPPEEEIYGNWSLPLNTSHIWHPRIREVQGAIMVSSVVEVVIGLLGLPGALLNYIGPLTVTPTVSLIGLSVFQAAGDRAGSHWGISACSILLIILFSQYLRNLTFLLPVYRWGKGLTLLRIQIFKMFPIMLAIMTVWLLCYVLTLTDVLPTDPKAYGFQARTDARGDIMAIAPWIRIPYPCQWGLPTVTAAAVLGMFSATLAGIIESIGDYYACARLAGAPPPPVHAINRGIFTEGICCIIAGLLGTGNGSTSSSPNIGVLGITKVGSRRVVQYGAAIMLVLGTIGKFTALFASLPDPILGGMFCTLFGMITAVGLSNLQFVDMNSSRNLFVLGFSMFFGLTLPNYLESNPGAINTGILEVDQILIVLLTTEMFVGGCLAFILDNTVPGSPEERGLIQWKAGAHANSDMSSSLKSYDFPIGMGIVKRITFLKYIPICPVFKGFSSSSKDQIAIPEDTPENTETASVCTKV
Type: cell-based
Protocol: as §1, §2

Compound	IC50 [µM]
C=C(C)[C@H]1CN[C@H](C(=O)O)[C@H]1CC(=O)O [Kainic acid]	> 3.16

Same assay, conditions: Flipr Membrane Potential-Blue-Dye; read-out: pIC50 (act), SLC23A1 (converted)

Compound	IC50 [µM]
Cc1c(NC(=O)c2cc(C(N)=O)nc3cc(F)ccc23)c(C(F)(F)F)nn1Cc1ccc(C#N)cc1 [BAY-876]	> 3.16
CN1C2CCC1CC(OC(c1ccccc1)c1ccccc1)C2 (stereo not shown) [Benzotropine]	> 3.16
CCNC(=O)/C=C/c1cccc(Br)c1 [Cinromide]	> 3.16
O=S(=O)(O)c1cc(N=C=S)ccc1/C=C/c1ccc(N=C=S)cc1S(=O)(=O)O [DIDS]	> 3.16
COCCOc1cc(CC2CCN(CCc3ccc4c(c3)C(=O)CCO4)CC2)ccc1Br [DSP-1053]	> 3.16
CNCCCN1c2ccccc2CCc2ccccc21 [Desipramine]	> 3.16
CC(C)[C@H]1CN[C@H](C(=O)O)[C@H]1CC(=O)O [Dihydrokainate]	> 3.16
N#Cc1ccc(Nc2cnccc2SCc2ccccc2C(=O)O)c2ccccc12 [KPH2f]	> 3.16

What follows are compounds tested against SLC6A2 (Homo sapiens, UniProt P23975) (assay: Impedance-based TRACT assay, HEK293–JumpIn–NET (SLC6A2) cells). Conditions: not given.
Chain of SLC6A2 (P23975 whole entry): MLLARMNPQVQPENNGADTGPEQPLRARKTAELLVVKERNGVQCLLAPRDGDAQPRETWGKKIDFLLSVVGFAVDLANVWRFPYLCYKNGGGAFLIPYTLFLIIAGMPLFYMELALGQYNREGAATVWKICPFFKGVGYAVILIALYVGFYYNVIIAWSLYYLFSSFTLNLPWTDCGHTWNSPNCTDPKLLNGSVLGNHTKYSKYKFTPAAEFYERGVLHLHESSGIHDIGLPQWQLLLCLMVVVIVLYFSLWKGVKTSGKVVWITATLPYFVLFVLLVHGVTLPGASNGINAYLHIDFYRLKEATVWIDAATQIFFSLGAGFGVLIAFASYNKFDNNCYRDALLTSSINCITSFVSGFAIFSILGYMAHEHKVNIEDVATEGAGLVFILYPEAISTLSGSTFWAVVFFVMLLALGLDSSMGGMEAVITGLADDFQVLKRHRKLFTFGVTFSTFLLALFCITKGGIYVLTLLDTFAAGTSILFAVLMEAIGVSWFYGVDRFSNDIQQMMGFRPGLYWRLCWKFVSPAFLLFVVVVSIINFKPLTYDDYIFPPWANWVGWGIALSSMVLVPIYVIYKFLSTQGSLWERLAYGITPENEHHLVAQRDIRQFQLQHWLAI
Type: cell-based
Parameters: expressed in transfected cells; host or cells: Jump In T-REx HEK293

Compound	IC50 [µM]
C=C(C)[C@H]1CN[C@H](C(=O)O)[C@H]1CC(=O)O [Kainic acid]	> 10

Same assay, conditions: approximate value stated in text; read-out: IC50, SLC6A2

IC50 [µM]	Compound
~1	N#Cc1ccc(Nc2cnccc2SCc2ccccc2C(=O)O)c2ccccc12 [KPH2f]

Same assay, conditions: target SLC6A2, assay TRACT; read-out: pIC50 (act) (converted)

Compound	IC50 [µM]
CCNC(=O)/C=C/c1cccc(Br)c1 [Cinromide]	> 10
O=S(=O)(O)c1cc(N=C=S)ccc1/C=C/c1ccc(N=C=S)cc1S(=O)(=O)O [DIDS]	> 10
COCCOc1cc(CC2CCN(CCc3ccc4c(c3)C(=O)CCO4)CC2)ccc1Br [DSP-1053]	> 10
CC(C)[C@H]1CN[C@H](C(=O)O)[C@H]1CC(=O)O [Dihydrokainate]	> 10
